From US20250120928A1 (University of Maryland, Baltimore, priority 2021, published 2025)
“Also recorded” adds a separate entry of the source.

Assays:
HDAC1, 2, 3 = tested on: T1, HDAC1, 2, 3; experiment: Fluorescence-based HDAC activity assay with fluorogenic peptide substrate (Reaction Biology); type: biochemical
T1 construct: other: range over the three isoforms; other: 237-359 nM compared to 30000 nM
Experimental: (§1) Fluorescence-based activity assays using fluorogenic peptides as substrates for HDAC1, 2, 3, 6, and 8 were performed by Reaction Biology Corporation (reactionbiology.com). […] The substrate for HDACs 1, 2, 3, and 6 was a fluorogenic peptide from p53 residues 379-382 (RHKK(Ac)AMC) (SEQ ID NO: 1). The substrate for HDAC8 was a fluorogenic peptide from p53 residues 379-382 (RHK(Ac)K(Ac)AMC) (SEQ ID NO: 2). SAHA-OH IC50 values were calculated using GraphPad Prism 4 program based on a sigmoidal dose-response equation. The blank (DMSO) value was entered as 1.00×10^−12 of concentration for curve fitting.

HDAC6 = target: T2, HDAC6 (Homo sapiens, UniProt Q9UBN7); experiment: as above; type: biochemical
T2 construct: purchased Reaction Biology Corporation
T2 sequence (Q9UBN7 1-1215): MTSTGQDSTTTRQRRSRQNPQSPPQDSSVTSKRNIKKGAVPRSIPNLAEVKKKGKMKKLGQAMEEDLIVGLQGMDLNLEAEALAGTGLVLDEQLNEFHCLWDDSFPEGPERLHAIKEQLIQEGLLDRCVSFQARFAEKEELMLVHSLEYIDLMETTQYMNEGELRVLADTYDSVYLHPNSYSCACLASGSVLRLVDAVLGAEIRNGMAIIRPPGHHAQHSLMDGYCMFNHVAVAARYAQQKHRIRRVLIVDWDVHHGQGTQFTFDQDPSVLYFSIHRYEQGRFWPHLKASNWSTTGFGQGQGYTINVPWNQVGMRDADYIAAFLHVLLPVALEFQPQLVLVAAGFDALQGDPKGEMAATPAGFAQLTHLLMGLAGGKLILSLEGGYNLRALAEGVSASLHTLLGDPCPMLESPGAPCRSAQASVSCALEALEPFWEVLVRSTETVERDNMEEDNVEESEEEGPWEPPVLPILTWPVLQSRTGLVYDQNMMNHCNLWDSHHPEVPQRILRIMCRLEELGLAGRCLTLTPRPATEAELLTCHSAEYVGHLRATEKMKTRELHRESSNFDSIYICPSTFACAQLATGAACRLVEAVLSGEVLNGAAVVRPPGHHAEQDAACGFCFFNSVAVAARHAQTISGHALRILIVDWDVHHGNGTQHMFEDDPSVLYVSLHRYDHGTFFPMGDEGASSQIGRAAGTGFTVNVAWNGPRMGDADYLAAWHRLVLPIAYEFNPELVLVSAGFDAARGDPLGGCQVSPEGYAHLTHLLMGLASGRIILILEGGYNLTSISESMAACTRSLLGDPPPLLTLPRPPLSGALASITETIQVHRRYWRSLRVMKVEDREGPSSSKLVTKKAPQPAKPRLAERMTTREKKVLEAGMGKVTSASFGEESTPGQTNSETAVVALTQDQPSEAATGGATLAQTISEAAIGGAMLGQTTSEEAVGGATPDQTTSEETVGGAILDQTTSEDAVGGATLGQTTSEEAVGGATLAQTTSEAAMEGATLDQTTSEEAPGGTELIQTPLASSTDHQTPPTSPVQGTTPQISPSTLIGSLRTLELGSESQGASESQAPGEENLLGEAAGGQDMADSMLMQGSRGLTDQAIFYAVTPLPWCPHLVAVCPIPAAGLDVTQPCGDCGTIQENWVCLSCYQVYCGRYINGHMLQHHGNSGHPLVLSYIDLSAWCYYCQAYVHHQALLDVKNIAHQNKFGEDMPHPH
Experimental: as §1

[1] = tested on: LPS-stimulated bone marrow macrophages (BMMØ); experiment: BMMØ cytokine secretion following LPS stimulation (ELISA, Luminex); type: cell-based, C57BL/6J mice
Experimental: (§2) Three hours later, cells were stimulated with 100 ng/mL LPS. After 48 hours, cell culture supernatants were collected and analyzed by enzyme-linked immunosorbent assays (ELISA) (BioLegend, San Diego, CA) to measure murine IL-6 and TNFα. MAGPIX Luminex bead-based multiplex ELISA (Thermo Fisher Scientific, Waltham, MA) measured for 7 various cytokines and chemokines, and data were analyzed using the Luminex xPONENT software (Millipore) as per manufacturer's instructions. The 7-plex panel included murine IFNβ, IL-10, IL-6, IL-1β, MCP-1 (CCL2), TNFα, and GROα (CXCL1).
as §2, with “After” for “Three hours later, cells were stimulated with 100 ng/mL LPS. After”, “(Milli-pore)” for “(Millipore)”, “TL-6,” for “IL-6,”

[2] = tested on: B cells (B220+) isolated from splenocytes; experiment: Splenocyte apoptosis and cell death by AV/PI flow cytometry, B cells; type: cell-based
Experimental: Splenocytes were isolated from spleens as previously described. Briefly, 5-12-week C57BL/6J female mice were euthanized and the spleen was isolated. The spleen was processed into single-cell suspensions using a 40 μm cell strainer and flushed with cold PBS supplemented with 1% FBS and 0.4% 0.5 M EDTA (Quality Biological, Gaithersburg, MD). Erythrocytes were lysed with ACK lysis buffer (Quality Biological, Gaithersburg, MD). […] Subsequently, splenocytes were stimulated with 100 ng/mL LPS for 24 hours. Splenocytes were then washed with cold PBS supplemented with 1% FBS and 0.4% 0.5 M EDTA and FcR blocked, as previously mentioned. Splenocytes were then stained with purified anti-mouse PE/Cyanine7 CD45R/B220 antibody (#103222) (BioLegend, San Diego, CA) for the B cell population. SAHA and SAHA-OH apoptosis and cell death were then assessed using the FITC-AV Apoptosis Detection Kit with PI via flow cytometry, as previously mentioned. Flow cytometry data were collected using a Cytex Aurora flow cytometer. Flow plots and data processing was done using FCS Express 7 Flow Cytometry De Novo Software (De Novo, Glendale, CA).

BMMØs = experiment: Western blot analysis of acetyl-histone H3 and acetyl-α-tubulin; settings: 10 μM, unstimulated BMMØs, 4 and 9 hours
Experimental: Day 8 BMMØs were seeded at 1×10^6 cells/well in sterile 6-well plates incubated at 37° C. and 5% CO2 overnight to allow for cell adherence. […] Cells were lysed with Halt™ Protease Inhibitor Cocktail (Cat #78429) (Thermo Fisher, Waltham MA) in RIPA Buffer (Cat #R0278) (Sigma-Aldrich, St. Louis, MO) and scraped with a cell scraper (VWR, Radnor, PA). Lysates were sonicated with a ⅛^th needle tip using a Cole-Parmer 500-Watt Ultrasonic Homogenizer at 40% amplitude for 10 seconds on ice. Lysates were then centrifuged at 4° C. for 20 minutes at 12,000×g. The supernatant was collected and frozen at −80° C. until ready for western blot analysis. Protein lysates were produced using 50/50 sample to 2×SDS/PAGE sample buffer. Proteins were then separated by SDS/PAGE and immunoblotted using Histone H3 (D1H2) XP, Acetyl-Histone H3 (lys9/Lys14), α-Tubulin (11H10), Acetyl-α-Tubulin (Lys40) (D20G3) XP and β-Actin as primary antibodies. ECL was used for detection.
Day 8 BMMØs were seeded at 1×10^6 cells/well in sterile 6-well plates incubated at 37° C. and 5% CO2 overnight to allow for cell adherence. […] Cells were lysed with Halt™ Protease Inhibitor Cocktail (Cat #78429) (Thermo Fisher, Waltham MA) in RIPA Buffer (Cat #R0278) (Sigma-Aldrich, St. Louis, MO) and scraped with a cell scraper (VWR, Radnor, PA). Lysates were sonicated with a ⅛th needle tip using a Cole-Parmer 500-Watt Ultrasonic Homogenizer at 40% amplitude for 10 seconds on ice. Lysates were then centrifuged at 4° C. for 20 minutes at 12,000×g. The supernatant was collected and frozen at −80° C. until ready for western blot analysis. Protein lysates were produced using 50/50 sample to 2×SDS/PAGE sample buffer. Proteins were then separated by SDS/PAGE and immunoblotted using Histone H3 (D1H2) XP, Acetyl-Histone H3 (Lys9/Lys14), α-Tubulin (11H10), Acetyl-α-Tubulin (Lys40) (D20G3) XP and β-Actin as primary antibodies. ECL was used for detection.

[3] = 0-30 μM for 3 hours, then LPS 100 ng/mL 48 hours, ELISA
[4] = 10 μM, 3 hours before 48-hour LPS
[5] = 10 μM, 3 hours before 48-hour LPS, Luminex, relative to LPS control

## O=C(CCCCCCC(=O)Nc1ccc(CO)cc1)NO [SAHA-OH, N^1-hydroxy-N^8-(4-(hydroxymethyl)phenyl)octanediamide]
HDAC1, 2, 3; 237-359 nM compared to 30000 nM
  more selective for HDAC1, 2, 3 compared to Tubastatin A: approximately 100 fold
HDAC1, 2, 3; range over the three isoforms, read-out: IC50 against HDAC1, 2, 3
  IC50: 237 to 359 nM
HDAC6; 23 nM compared to […] nM
  less selective HDAC6 inhibition compared to Tubastatin A: 1.5 fold
HDAC6; read-out: IC50 against HDAC6
  IC50: 23 nM
[1]; [3]
  IL-6 cytokine secretion: concentration-dependent reduction
  TNFα cytokine secretion: concentration-dependent reduction
[1]; [4]
  IL-6 secretion: less effective than SAHA; also recorded: only moderately suppressed
  MCP-1 cytokine secretions: non-significantly affected
[1]; [5]
  IFNβ cytokine levels: similarly suppressed cytokine levels compared to SAHA
  IL-1β cytokine levels: did not affect IL-1β (FIG. 8B) cytokine levels as effectively as 10 μM SAHA
  TNFα cytokine levels: similarly suppressed cytokine levels compared to SAHA
[1]; 10 μM, Luminex, compared to LPS or SAHA-treated BMMØs
  GROα (CXCL1) secretion: significant upregulation
[2]; 0-30 μM
  toxicity profile for the B cell population: concentration-dependent toxicity profiles
[2]; 10 μM
  decrease in cell death of the B cell population versus SAHA: 3 fold
  enhancement in viability of the B cell population versus SAHA: 5 fold
BMMØs
  acetylation of histone H3: slight decrease in histone H3 acetylation compared to SAHA; also recorded: reduced Ac—H3 activity compared to SAHA
  acetylation of α-tubulin: similarly resulted in the acetylation; also recorded: similar
